Measured values taken from article PMC10866072, “Design, synthesis, molecular modelling and biological evaluation of novel 6-amino-5-cyano-2-thiopyrimidine derivatives as potent anticancer agents against leukemia and apoptotic inducers” (Journal of Enzyme Inhibition and Medicinal Chemistry, 2024).

What was measured:
[1] = system: CCRF-CEM; type: cell-based; conditions: Homo sapiens, one dose 10^-5 M, 48 h
[2] = system: HL-60(TB); type: cell-based; conditions: Homo sapiens, one dose 10^-5 M, 48 h
[3] = system: K-562; type: cell-based; conditions: Homo sapiens, K562, one dose 10^-5 M, 48 h
[4] = system: MOLT-4; type: cell-based; conditions: Homo sapiens, one dose 10^-5 M, 48 h, read-out: % growth
[5] = system: RPMI-8226; type: cell-based; conditions: Homo sapiens, one dose 10^-5 M, 48 h
[6] = system: SR; type: cell-based; conditions: Homo sapiens, one dose 10^-5 M, 48 h
[7] = system: A549/ATCC; type: cell-based; conditions: Homo sapiens, one dose 10^-5 M, 48 h
[8] = system: EKVX; type: cell-based; conditions: Homo sapiens, one dose 10^-5 M, 48 h
[9] = system: HOP-62; type: cell-based; conditions: Homo sapiens, one dose 10^-5 M, 48 h
[10] = system: HOP-92; type: cell-based; conditions: Homo sapiens, one dose 10^-5 M, 48 h
[11] = system: NCI-H226; type: cell-based; conditions: Homo sapiens, one dose 10^-5 M, 48 h
[12] = system: NCI-H23; type: cell-based; conditions: Homo sapiens, one dose 10^-5 M, 48 h, read-out: % growth
[13] = system: NCI-H460; type: cell-based; conditions: Homo sapiens, one dose 10^-5 M, 48 h, read-out: % growth
[14] = system: NCI-H522; type: cell-based; conditions: Homo sapiens, one dose 10^-5 M, 48 h
[15] = system: COLO 205; type: cell-based; conditions: Homo sapiens, one dose 10^-5 M, 48 h
[16] = system: HCC-2998; type: cell-based; conditions: Homo sapiens, one dose 10^-5 M, 48 h
[17] = system: HCT-116; type: cell-based; conditions: Homo sapiens, one dose 10^-5 M, 48 h, read-out: % growth
[18] = system: HCT-15; type: cell-based; conditions: Homo sapiens, one dose 10^-5 M, 48 h, read-out: % growth
[19] = system: HT29; type: cell-based; conditions: Homo sapiens, HT-29, one dose 10^-5 M, 48 h
[20] = system: KM12; type: cell-based; conditions: Homo sapiens, one dose 10^-5 M, 48 h
[21] = system: SW-620; type: cell-based; conditions: Homo sapiens, one dose 10^-5 M, 48 h
[22] = system: SF-268; type: cell-based; conditions: Homo sapiens, one dose 10^-5 M, 48 h, read-out: % growth
[23] = system: SF-295; type: cell-based; conditions: Homo sapiens, one dose 10^-5 M, 48 h
[24] = system: SF-539; type: cell-based; conditions: Homo sapiens, one dose 10^-5 M, 48 h
[25] = system: SNB-19; type: cell-based; conditions: Homo sapiens, one dose 10^-5 M, 48 h, read-out: % growth
[26] = system: SNB-75; type: cell-based; conditions: Homo sapiens, one dose 10^-5 M, 48 h
[27] = system: U251; type: cell-based; conditions: Homo sapiens, U-251, one dose 10^-5 M, 48 h
[28] = system: LOX IMVI; type: cell-based; conditions: Homo sapiens, one dose 10^-5 M, 48 h, read-out: % growth
[29] = system: MALME-3M; type: cell-based; conditions: Homo sapiens, one dose 10^-5 M, 48 h
[30] = system: M14; type: cell-based; conditions: Homo sapiens, one dose 10^-5 M, 48 h
[31] = system: MDA-MB-435; type: cell-based; conditions: Homo sapiens, one dose 10^-5 M, 48 h, read-out: % growth
[32] = system: SK-MEL-2; type: cell-based; conditions: Homo sapiens, one dose 10^-5 M, 48 h
[33] = system: SK-MEL-28; type: cell-based; conditions: Homo sapiens, one dose 10^-5 M, 48 h
[34] = system: SK-MEL-5; type: cell-based; conditions: Homo sapiens, one dose 10^-5 M, 48 h, read-out: % growth
[35] = system: UACC-257; type: cell-based; conditions: Homo sapiens, one dose 10^-5 M, 48 h
[36] = system: UACC-62; type: cell-based; conditions: Homo sapiens, one dose 10^-5 M, 48 h
[37] = system: IGROV1; type: cell-based; conditions: Homo sapiens, IGROV-1, one dose 10^-5 M, 48 h, read-out: % growth
[38] = system: OVCAR-3; type: cell-based; conditions: Homo sapiens, one dose 10^-5 M, 48 h
[39] = system: OVCAR-4; type: cell-based; conditions: Homo sapiens, one dose 10^-5 M, 48 h
[40] = system: OVCAR-5; type: cell-based; conditions: Homo sapiens, one dose 10^-5 M, 48 h
[41] = system: OVCAR-8; type: cell-based; conditions: Homo sapiens, one dose 10^-5 M, 48 h
[42] = system: NCI/ADR-RES; type: cell-based; conditions: Homo sapiens, one dose 10^-5 M, 48 h
[43] = system: SK-OV-3; type: cell-based; conditions: Homo sapiens, one dose 10^-5 M, 48 h
[44] = system: 786-0; type: cell-based; conditions: Homo sapiens, one dose 10^-5 M, 48 h
[45] = system: A498; type: cell-based; conditions: Homo sapiens, one dose 10^-5 M, 48 h
[46] = system: ACHN; type: cell-based; conditions: Homo sapiens, one dose 10^-5 M, 48 h
[47] = system: CAKI-1; type: cell-based; conditions: Homo sapiens, CAKI-1, 48 h, one dose 10^-5 M, 48 h
[48] = system: SN12C; type: cell-based, human; conditions: Homo sapiens, one dose 10^-5 M, 48 h
[49] = system: TK-10; type: cell-based; conditions: Homo sapiens, one dose 10^-5 M, 48 h
[50] = system: UO-31; type: cell-based; conditions: Homo sapiens, UO-31, 48 h, one dose 10^-5 M, 48 h
[51] = system: PC-3; type: cell-based; conditions: Homo sapiens, one dose 10^-5 M, 48 h
[52] = system: DU-145; type: cell-based; conditions: Homo sapiens, one dose 10^-5 M, 48 h
[53] = system: MCF7; type: cell-based; conditions: Homo sapiens, one dose 10^-5 M, 48 h, read-out: % growth
[54] = system: MDA-MB-231/ATCC; type: cell-based; conditions: Homo sapiens, one dose 10^-5 M, 48 h
[55] = system: HS 578T; type: cell-based; conditions: Homo sapiens; one dose 10^-5 M, 48 h; HS 578T; read-out: % growth
[56] = system: BT-549; type: cell-based; conditions: Homo sapiens, one dose 10^-5 M, 48 h
[57] = system: T-47D; type: cell-based; conditions: Homo sapiens, T47D, one dose 10^-5 M, 48 h, read-out: % growth
[58] = system: MDA-MB-468; type: cell-based; conditions: Homo sapiens, one dose 10^-5 M, 48 h
[59] = system: full NCI 60 cell lines panel; conditions: for activity at 10 µM: Homo sapiens, 60 cell, 48 h, read-out: Mean % growth; for activity on all 60 cancer cell lines tested (in words): one dose

Work on `CN(C)c1ccc(-c2nc(S)nc(N)c2C(=N)NN=Cc2ccccc2)cc1` [Compound 4a, 4-Amino-6-[4-(dimethylamino)phenyl]-2-mercapto-N'-[phenylmethylene] pyrimidine-5-carboximidohydrazide] yielded a % cell growth at 10 µM [1] of 82%, a % growth at 10 µM [2] of 94.7% and a % growth at 10 µM [3] of 107%. For the same compound, the activity at 10 µM [4] was 106%, the % growth at 10 µM [5] was 89.8% and the percent cell growth at 10 µM [6] was 104%. The % growth at 10 µM [7] was 103%, the % cell growth at 10 µM [8] was 96.3% and the % growth at 10 µM [9] was 109%. For the same compound, the % growth at 10 µM [10] was 114%, the % growth at 10 µM [11] was 98.6% and the activity at 10 µM [12] was 104%. It also gave an activity at 10 µM [13] of 104%, a % growth at 10 µM [14] of 99.4% and a % growth at 10 µM [15] of 140%. For the same compound, the % growth at 10 µM [16] was 113%, the activity at 10 µM [17] was 110% and the activity at 10 µM [18] was 99.9%. It also gave a % growth at 10 µM [19] of 101%, a % growth at 10 µM [20] of 107% and a % growth at 10 µM [21] of 108%. For the same compound, the activity at 10 µM [22] was 104%, the % cell growth at 10 µM [23] was 104% and the % growth at 10 µM [24] was 106%. For the same compound, the activity at 10 µM [25] was 102%, the % growth at 10 µM [26] was 101% and the % growth at 10 µM [27] was 111%. It also gave an activity at 10 µM [28] of 98.3%, a % growth at 10 µM [29] of 105% and a % growth at 10 µM [30] of 106%. It also gave an activity at 10 µM [31] of 99.4%, a % growth at 10 µM [32] of 108% and a % cell growth at 10 µM [33] of 105%. For the same compound, the activity at 10 µM [34] was 103%, the percent cell growth at 10 µM [35] was 106% and the % growth at 10 µM [36] was 97.9%. For the same compound, the activity at 10 µM [37] was 111%, the % growth at 10 µM [38] was 102% and the % growth at 10 µM [39] was 101%. It also gave a percent cell growth at 10 µM [40] of 111%, a % growth of cells at 10 µM [41] of 115% and a cell growth percent at 10 µM [42] of 104%. The % growth at 10 µM [43] was 118%, the % growth at 10 µM [44] was 102% and the % growth at 10 µM [45] was 107%. The % growth at 10 µM [46] was 101%, the % growth at 10 µM [47] was 99% and the % growth at 10 µM [48] was 103%. It also gave a % cell growth at 10 µM [49] of 105%, a % cell growth at 10 µM [50] of 75% and a percent cell growth at 10 µM [51] of 85.1%. It also gave a % growth at 10 µM [52] of 104%, an activity at 10 µM [53] of 93.1% and a % growth at 10 µM [54] of 109%. For the same compound, the activity at 10 µM [55] was 113%, the % cell growth at 10 µM [56] was 103% and the activity at 10 µM [57] was 105%. For the same compound, the percent cell growth at 10 µM [58] was 117%, the activity at 10 µM [59] was 104% and the “activity on all 60 cancer cell lines tested (in words)” value [59] was “weak activity”.
`CN(C)c1ccc(-c2nc(S)nc(N)c2C(=N)NN=Cc2ccc(Cl)cc2)cc1` [Compound 4b, 4-amino-N'-[(4-chlorophenyl)methylene]-6-[4-(dimethylamino)phenyl]-2-mercapto pyrimidine-5-carboximidohydrazide] was tested, and the % cell growth at 10 µM [1] was 76.3%, the % growth at 10 µM [2] was 91.8% and the % growth at 10 µM [3] was 98.5%. For the same compound, the activity at 10 µM [4] was 101%, the % growth at 10 µM [5] was 79.1% and the percent cell growth at 10 µM [6] was 98.7%. For the same compound, the % growth at 10 µM [7] was 98.4%, the % cell growth at 10 µM [8] was 91.8% and the % growth at 10 µM [9] was 109%. It also gave a % growth at 10 µM [10] of 118%, a % growth at 10 µM [11] of 99.8% and an activity at 10 µM [12] of 101%. It also gave an activity at 10 µM [13] of 99.8%, a % growth at 10 µM [14] of 92.4% and a % growth at 10 µM [15] of 137%. It also gave a % growth at 10 µM [16] of 94.3%, an activity at 10 µM [17] of 100% and an activity at 10 µM [18] of 92.3%. For the same compound, the % growth at 10 µM [19] was 92.7%, the % growth at 10 µM [20] was 92.9% and the % growth at 10 µM [21] was 102%. The activity at 10 µM [22] was 97.5%, the % cell growth at 10 µM [23] was 96.8% and the % growth at 10 µM [24] was 98%. For the same compound, the activity at 10 µM [25] was 98.8%, the % growth at 10 µM [26] was 95.2% and the % growth at 10 µM [27] was 106%. For the same compound, the activity at 10 µM [28] was 103%, the % growth at 10 µM [29] was 98.7% and the % growth at 10 µM [30] was 96.9%. It also gave an activity at 10 µM [31] of 96.2%, a % growth at 10 µM [32] of 107% and a % cell growth at 10 µM [33] of 103%. For the same compound, the activity at 10 µM [34] was 97.6%, the percent cell growth at 10 µM [35] was 99.7% and the % growth at 10 µM [36] was 94%. The activity at 10 µM [37] was 102%, the % growth at 10 µM [38] was 102% and the % growth at 10 µM [39] was 95.5%. The percent cell growth at 10 µM [40] was 109%, the % growth of cells at 10 µM [41] was 106% and the cell growth percent at 10 µM [42] was 104%. For the same compound, the % growth at 10 µM [43] was 120%, the % growth at 10 µM [44] was 86.7% and the % growth at 10 µM [45] was 92.1%. The % growth at 10 µM [46] was 102%, the % growth at 10 µM [47] was 102% and the % growth at 10 µM [48] was 88.5%. For the same compound, the % cell growth at 10 µM [49] was 90%, the % cell growth at 10 µM [50] was 65.4% and the percent cell growth at 10 µM [51] was 91.5%. The % growth at 10 µM [52] was 100%, the activity at 10 µM [53] was 90.9% and the % growth at 10 µM [54] was 102%. The activity at 10 µM [55] was 97.5%, the % cell growth at 10 µM [56] was 95.7% and the activity at 10 µM [57] was 88.3%. For the same compound, the percent cell growth at 10 µM [58] was 107%, the activity at 10 µM [59] was 98.2% and the “activity on all 60 cancer cell lines tested (in words)” value [59] was “weak activity”.
